{
  "source": "patent US20060135587A1",
  "about": "“Method and compounds for promoting healing and reducing inflammation” (priority 2002, published 2006)",
  "key": {"experimental granuloma": {"tested_on": "experimental granuloma", "test": "Cotton-wool granuloma (chronic proliferative inflammation) in rats", "type": "in vivo", "conditions": "100 mg/kg orally, 12 days", "experimental": "We investigated the ability of compound (2) to reduce the formation of granulation tissue in the inflammatory focus which develops at the site at which a non-sterile cotton-wool roll weighing 40 mg is implanted subcutaneously (Swingle and Shideman, 1972). Compound (2) was administered orally to male rats weighing 130-150 g at a dose of 100 mg/kg for 6 days before the cotton-wool roll was implanted, and then for 6 days at the same dose while the granuloma developed. Anti-inflammatory agents, such as ibuprofen and butadione, were used for comparison, using the same procedure. There were 10 rats in each group.\nAfter 12 days the experiment was terminated, and the granulomas were excised, weighed, and the wet weight of the granulation tissue was measured. The dry mass of the granuloma was measured after drying for 24 hours at 70° C., and the exudative and proliferative stages of the granulomas were calculated. Statistical analysis was performed using the Student's parametric test."}, "[1]": {"tested_on": "liver after partial hepatectomy", "test": "Morphological study of the liver after partial hepatectomy", "type": "in vivo, rats", "conditions": "one week after hepatectomy", "experimental": "Morphological methods are highly informative in the assessment of repair processes. Histological tests of the liver after partial hepatectomy were performed using generally accepted methods. Microscopic sections were stained with hematoxylin and eosin using Van Gieson's methodology. Liver tests after partial hepatectomy were performed on 8 groups of animals, totalling 37 rats. All animals were examined one week after hepatectomy."}, "wounds": {"tested_on": "wounds", "test": "Treatment of wounds in human patients", "type": "in vivo", "experimental": "The effect of Compound 2 on the healing of different types of wounds was tested in human patients. A powder, solution or ointment of the substance containing the active agent in a proportion of 5% to 95% was applied to the wound. In all cases the wounds healed rapidly without infection or scarring."}, "myocardial infarction": {"tested_on": "myocardial infarction", "test": "Clinical study in subacute phase of myocardial infarction (Example 24)", "type": "in vivo, human", "experimental": "The effect of Compound 2 therapy in patients suffering from the subacute phase of myocardial infarction (MI) was assessed. The patients were divided into two groups. There were no substantial differences between the groups in terms of age and basic features of necrotic foci. Each patient continued to receive the treatment which s/he had been given prior to commencement of the trial. Compound 2 was administered in addition to the previous treatment. The first group included 63 patients who received conventional therapy, i.e. nitrates, anticoagulants and/or hypotensive agents as appropriate, and the second group comprised 44 patients who were treated with Compound 2 at a dose of 600 mg per day from the 7th to the 28th day after diagnosis of myocardial infarction, in addition to receiving conventional treatment. The control group included 14 healthy men aged from 26 to 42. The average age of patients in the first group was 50.3 years, and in the second group, 49.5 years.\nClinical evidence from daily examinations of both groups and the results of electrocardiagraphic examination in 12 abductions were assessed over the entire observation period. A number of analyses were made on the 7th and 28th day of progress of MI, including clinical blood count, plasma bilirubin, sugar, creatinine, cholesterol, β3-lipoproteins, potassium and sodium, and urine analysis; the activity of the prothrombin complex and the time of re-calcification were also determined. Central haemodynamics were examined using the method of body integral rheography, whereby the stroke volume and cardiac indices were calculated. Indices of left ventricular contractility—terminal diastolic volume, ejection fraction, and the extent of systolic contraction of anteroposterior cavity dimensions (% ΔS)— were examined using the echography method using an Aloka SSD-119 apparatus (Japan). Central and intracardiac haemodynamics was investigated on the 1st, 7th; 14th, 21st and 28th days of the disease."}, "[2]": {"tested_on": "carrageenin-induced inflammation", "test": "Carrageenin-induced inflammation in intact and adrenalectomized rats", "type": "in vivo", "experimental": "An acute inflammatory oedema was induced in intact and adrenalectomized male rats weighing 180-200 g by sub-plantar injection of 0.1 ml of 1% carrageenin solution into the left paw (Winter et al., 1962). The same volume of saline solution was injected into the contralateral paw. […] There were 10 rats in each group.\nThe degree of carrageenin-induced inflammation of the ankle joints was assessed at 3 hours after the induction of the inflammation, on the basis of the change in weight of the experimental and control paws (reaction index)."}, "[3]": {"tested_on": "cryogenic ulcer of the gastric mucosa", "test": "Cryogenic gastric ulcer in rats", "type": "in vivo", "conditions": "for reduction of the size of lesions in the gastric mucosa: day 14", "experimental": "The models used gastric ulcers induced by\nc) Ulcer created by local wounding with a cryogenic probe using a method similar to that described above for mouth ulcers.\nThe compounds were administered intraperitoneally at a dose of 20 mg/kg; in the cryogenic ulcer model compound 2 was administered either intraperitoneally (10 mg/kg) or orally (20 mg/kg twice daily, ie. a total of 40 mg/kg/day) and was compared to orally-administered gastrocepin (1 mg/kg twice daily, ie. a total of 2 mg/kg/day)."}, "mice, rats, dogs": {"tested_on": "mice, rats, dogs", "test": "Chronic toxicity studies over six months", "type": "in vivo", "conditions": "mice and rats 40 mg/kg per day subcutaneously, dogs 10 or 40 mg/kg per day orally", "experimental": "No effect on body weight, weight of internal organs, structure or function of internal organs or blood indicators was observed. These studies were performed in mice (40 mg/kg per day, given subcutaneously), in rats (40 mg/kg per day, given subcutaneously) and in dogs (10 mg/kg or 40 mg/kg per day, given orally)."}, "[4]": {"tested_on": "carbon tetrachloride-induced liver damage", "test": "Carbon tetrachloride-induced liver damage in rats", "type": "in vivo", "conditions": "20 mg/kg orally; CCl4 intoxication", "experimental": "The prophylactic and therapeutic effects of Compound 2 on liver damage were examined in a carbon tetrachloride intoxication model. Liver dysfunction was induced by the […] injection of a liquid paraffin-based 50% carbon tetrachloride solution at a dose of 0.8 ml per 100 g of body mass daily for four days. Inbred male white rats weighing 200-220 g were treated with Compound 2 at a dose of 20 mg/kg given orally by intragastric tube on the eighth day after injection of carbon tetrachloride, and daily for four days thereafter. Control animals received carbon tetrachloride only. Animals were sacrificed 7 days after the last injection of carbon tetrachloride, when the morphological changes are most pronounced, and samples of liver were taken for histology."}, "[5]": {"conditions": "Adrenalectomized animals, 50 mg/kg 4 days + carrageenin"}, "[6]": {"conditions": "Adrenalectomized animals, 100 mg/kg 4 days + carrageenin"}, "[7]": {"conditions": "Intact animals, 100 mg/kg 4 days + carrageenin"}, "[8]": {"conditions": "healing effect over the course of 14 days, twice daily, oral"}},
  "data": [
    {"smiles": "CC[n+]1cn(C)c(C(=O)NC)c1C(=O)NC.O=S(=O)([O-])c1ccccc1", "note": "[Compound 2, 1-methyl-3-ethyl-4,5-bis(N-methylcarbamoyl)-imidazolium benzenesulfonate]", "values": [
      {"measurement": "Granuloma weight (mg) Dry weight", "setting": "experimental granuloma", "result": "180.71 ± 14.16", "unit": "mg"},
      {"measurement": "Granuloma weight (mg) Exudative stage", "setting": "experimental granuloma", "result": 775.58, "unit": "mg"},
      {"measurement": "Granuloma weight (mg) Fresh weight", "setting": "experimental granuloma", "result": "956.29 ± 115.5", "unit": "mg"},
      {"measurement": "Granuloma weight (mg) Proliferative stages", "setting": "experimental granuloma", "result": 140.71, "unit": "mg"},
      {"measurement": "histological findings in the liver", "setting": "[1]; 0.1 MM/kg", "result": "showed no undesirable effects"},
      {"measurement": "histological findings in the liver", "setting": "[1]; 0.2 MM/kg", "result": "some of the animals demonstrated hepatocyte hypertrophy combined with subacute hepatitis"},
      {"measurement": "wound outcome", "setting": "wounds; Patient A, incisional wound 5 cm, 10% ointment in lanolin daily for 5 days, at 17 days", "result": "there was no scar, and the skin had fully recovered"},
      {"measurement": "wound outcome", "setting": "wounds; Patient B, bed sores on the thigh, 0.5 g finely dispersed powder daily for 5 days, at 16 days", "result": "there was no scar, and the skin had fully recovered"},
      {"measurement": "wound outcome", "setting": "wounds; Patient C, second degree thermal burn, 10% sterile aqueous solution, at 16 days", "result": "complete recovery of the skin, without scars"},
      {"measurement": "wound outcome", "setting": "wounds; Patient D, abrasion of the left leg, 0.5 g powder mixed with equal amount of talc, at 12 days", "result": "the skin had healed completely"},
      {"measurement": "wound outcome", "setting": "wounds; Patient E, erosion of the uterine cervix, 10% ointment on a tampon daily for two weeks, colposcopy at 18 days", "result": "the epithelium of the mucous membrane of the uterine cervix had fully recovered"},
      {"measurement": "left ventricular myocardial contractility", "setting": "myocardial infarction; 600 mg per day combined with conventional therapy", "result": "increased the rate and extent of regeneration of left ventricular myocardial contractility"},
      {"measurement": "clinical side effects", "setting": "myocardial infarction; 600 mg per day, 7th to 28th day of the disease", "result": "did not produce any clinical side effects"},
      {"measurement": "serum bilirubin", "setting": "myocardial infarction; 600 mg per day, does not exceed the upper limit of standard values", "result": "increase in unconjugated and hence total bilirubin in serum"},
      {"measurement": "Inhibition of oedema(%)", "setting": "[2]; [5]", "result": 27.88, "unit": "%"},
      {"measurement": "Reaction index (%)", "setting": "[2]; [5]", "result": "31.04 ± 2.49", "unit": "%"},
      {"measurement": "Inhibition of oedema(%)", "setting": "[2]; [6]", "result": 44.43, "unit": "%"},
      {"measurement": "Reaction index (%)", "setting": "[2]; [6]", "result": "25.63 ± 2.86", "unit": "%"},
      {"measurement": "Inhibition of oedema(%)", "setting": "[2]; Intact animals, 50 mg/kg orally 4 days + carrageenin", "result": 30.41, "unit": "%"},
      {"measurement": "Reaction index (%)", "setting": "[2]; Intact animals, 50 mg/kg orally 4 days + carrageenin, 3 hours", "result": "29.96 ± 2.30", "unit": "%"},
      {"measurement": "Inhibition of oedema(%)", "setting": "[2]; [7]", "result": 47.43, "unit": "%"},
      {"measurement": "Reaction index (%)", "setting": "[2]; [7]", "result": "22.63 ± 2.86", "unit": "%"},
      {"measurement": "reduction of the size of lesions in the gastric mucosa", "setting": "[3]; 10 mg/kg intraperitoneally", "result": 53, "unit": "%"},
      {"measurement": "reduction of the size of lesions in the gastric mucosa", "setting": "[3]; daily dose of 40 mg/kg orally", "result": 51, "unit": "%"},
      {"measurement": "% reduction of degree of ulceration", "setting": "[3]; [8]", "result": 62, "unit": "%"},
      {"measurement": "Average number of lesions per animal", "setting": "[3]; [8]", "result": "9.4 ± 1.0"},
      {"measurement": "chronic toxicity findings", "setting": "mice, rats, dogs", "result": "had no irritating or allergic action, does not act on the central nervous system, and has no teratogenic, mutagenic or carcinogenic immunosuppressive activity"},
      {"measurement": "Average mitotic index", "setting": "[4]", "result": "0.021 ± 0.001", "unit": "arbitrary"},
      {"measurement": "Elimination of glycogen from damaged zones (arbitrary)", "setting": "[4]", "result": "4.9 ± 0.4", "unit": "arbitrary"},
      {"measurement": "Necrosis of hepatocytes (arbitrary)", "setting": "[4]", "result": "2.7 ± 0.3", "unit": "arbitrary"}
    ]}
  ]
}
